Source: US20260053861A1, “CELL COMPOSITIONS AND METHODS OF USING THE SAME” (THE REGENTS OF THE UNIVERSITY OF CALIFORNIA, priority 2022, published 2026)
Counter-ions that a name gives are not always drawn.

What follows are compounds tested on hPSC-SCs. Settings: not given.
Work on C[C@]12N[C@H](Cc3ccccc31)c1ccccc12 [Dizocilpine maleate] yielded a z.score.t of −0.1538. COc1c2c(nc3ccccc13)OC(C(C)(O)CO)C2 (centres unmarked) [Dubinidine] was tested, and the z.score.t was 0.6554. Compound CC[N+](C)(C)c1cccc(O)c1 [Edrophonium chloride] has a z.score.t of 0.7913. With C[C@]12CC[C@H](O)C[C@@H]1CC[C@@H]1[C@@H]2CC[C@]2(C)C(=O)CC[C@@H]12 [Epiandrosterone] the z.score.t was 1.457. Compound C[C@]12C[C@H]3S[C@H]3C[C@@H]1CC[C@@H]1[C@@H]2CC[C@]2(C)[C@@H](O)CC[C@@H]12 [Epitiostanol] has a z.score.t of 0.1686. CC[C@]12CCCN3CCc4c(n(c5ccccc45)[C@](O)(C(=O)OC)C1)[C@@H]32 [Epivincamine] gave a z.score.t of −0.2486. With CC(C)C[C@H]1C(=O)N2CCC[C@H]2[C@]2(O)O[C@](NC(=O)[C@@H]3C=C4c5cccc6[nH]cc(c56)C[C@H]4N(C)C3)(C(C)C)C(=O)N12 [Ergocryptine-alpha] the z.score.t was 0.495. Compound O=c1ccc2cc(O[C@@H]3O[C@H](CO)[C@@H](O)[C@H](O)[C@H]3O)c(O)cc2o1 [Esculin Hydrate] has a z.score.t of 1.053. Work on CNC(=O)Oc1ccc2c(c1)[C@]1(C)CCN(C)[C@@H]1N2C.CNC(=O)Oc1ccc2c(c1)[C@]1(C)CCN(C)[C@@H]1N2C.O=S(=O)(O)O [Eserine sulfate, physostigmine sulfate] yielded a z.score.t of −0.3526. C#C[C@]1(O)CC[C@H]2[C@@H]3CCC4=CC(=O)CC[C@]4(C)[C@H]3CC[C@@]21C [Ethisterone] showed a z.score.t of 0.2916.

Same assay, conditions: HTS viability of hPSC-SCs in the presence of 30 mM glucose; Prestwick library; Table S4
CN[C@@H]1[C@H](O[C@H]2[C@H](O[C@H]3[C@H](O)[C@@H](O)[C@H](NC(=N)N)[C@@H](O)[C@@H]3NC(=N)N)O[C@@H](C)[C@]2(O)CO)O[C@@H](CO)[C@H](O)[C@H]1O [Dihydrostreptomycin sulfate] gave a z.score.t of −0.359. COc1cc(C(=O)OCCCN2CCCN(CCCOC(=O)c3cc(OC)c(OC)c(OC)c3)CC2)cc(OC)c1OC [Dilazep dihydrochloride] showed a z.score.t of −1.444. CN(C(=O)C(Cl)Cl)c1ccc(OC(=O)c2ccco2)cc1 [Diloxanide furoate] showed a z.score.t of 1.069. With COc1ccc([C@@H]2Sc3ccccc3N(CCN(C)C)C(=O)[C@@H]2OC(C)=O)cc1 [Diltiazem hydrochloride] the z.score.t was 0.6906. Work on CN(C)CCCSC(=N)N [Dimaprit dihydrochloride] yielded a z.score.t of 1.918. In the case of CN(C)CCOC(c1ccccc1)c1ccccc1.Cn1c(=O)c2[nH]c(Cl)nc2n(C)c1=O [Dimenhydrinate], the z.score.t is reported as 0.08508. With CC1(C)OC(=O)NC1=O [Dimethadione] the z.score.t was −0.03362. Compound CCCCc1cc2ccccc2c(OCCN(C)C)n1 [Dimethisoquin hydrochloride] has a z.score.t of 0.04918. In the case of CCCCC[C@H](O)/C=C/[C@@H]1[C@@H](C/C=C\CCCC(=O)O)[C@@H](O)C[C@H]1O [Dinoprost trometamol], the z.score.t is reported as 1.789. Compound COc1ccc(C(=O)c2ccccc2O)c(O)c1 [Dioxybenzone] has a z.score.t of −0.2359. Compound O=C(Nc1ccccc1)OCC(CN1CCCCC1)OC(=O)Nc1ccccc1 (centres unmarked) [Diperodon hydrochloride] has a z.score.t of −0.7776. Compound C[N+]1(C)CCC(=C(c2ccccc2)c2ccccc2)CC1 [Diphemanil methylsulfate] has a z.score.t of 0.05523. Compound CN(C)CCOC(c1ccccc1)c1ccccc1 [Diphenhydramine hydrochloride] has a z.score.t of −0.5689. OC(CCCN1CCCCC1)(c1ccccc1)c1ccccc1 [Diphenidol hydrochloride] gave a z.score.t of 0.9906. CN1CCC(OC(c2ccccc2)c2ccccc2)CC1 [Diphenylpyraline hydrochloride] showed a z.score.t of −0.7376. CNCC(O)c1ccc(OC(=O)C(C)(C)C)c(OC(=O)C(C)(C)C)c1 (centres unmarked) [Dipivefrin hydrochloride] gave a z.score.t of −1.319. With Cn1c(=O)c2c(ncn2CC(O)CO)n(C)c1=O (centres unmarked) [Diprophylline] the z.score.t was 0.7415. OCCN(CCO)c1nc(N2CCCCC2)c2nc(N(CCO)CCO)nc(N3CCCCC3)c2n1 [Dipyridamole] was tested, and the z.score.t was −0.8392. In the case of Cc1c(N(C)CS(=O)(=O)[O-])c(=O)n(-c2ccccc2)n1C.[Na+] [Dipyrone], the z.score.t is reported as −1.008. Work on CC[C@H]1OC(=O)[C@H](C)[C@@H](O[C@H]2C[C@@](C)(OC)[C@@H](O)[C@H](C)O2)[C@H](C)[C@@H](O[C@@H]2O[C@H](C)C[C@H](N(C)C)[C@H]2O)[C@](C)(O)C[C@@H](C)[C@@H]2N[C@@H](COCCOC)O[C@H]([C@H]2C)[C@]1(C)O [Dirithromycin] yielded a z.score.t of 0.3231. CC(C)N(CCC(C(N)=O)(c1ccccc1)c1ccccn1)C(C)C (centres unmarked) [Disopyramide] gave a z.score.t of 0.4205. CCN(CC)C(=S)SSC(=S)N(CC)CC [Disulfiram] gave a z.score.t of −1.291. In the case of CC(CCc1ccc(O)cc1)NCCc1ccc(O)c(O)c1 (centres unmarked) [Dobutamine hydrochloride], the z.score.t is reported as −0.3731. O=c1[nH]c2ccccc2n1CCCN1CCC(n2c(=O)[nH]c3cc(Cl)ccc32)CC1 [Domperidone] gave a z.score.t of 0.006455. CCN[C@H]1C[C@H](C)S(=O)(=O)c2sc(S(N)(=O)=O)cc21 [Dorzolamide hydrochloride] showed a z.score.t of −0.7873. For CN(C)CC/C=C1\c2ccccc2CSc2ccccc21 [Dosulepin hydrochloride], the z.score.t was −0.8478. COc1cc2nc(N3CCN(C(=O)C4COc5ccccc5O4)CC3)nc(N)c2cc1OC (centres unmarked) [Doxazosin mesylate] showed a z.score.t of −0.8683. CN(C)CCC=C1c2ccccc2COc2ccccc21 [Doxepin hydrochloride] showed a z.score.t of 0.1594. Compound COc1cccc2c1C(=O)c1c(O)c3c(c(O)c1C2=O)C[C@@](O)(C(=O)CO)C[C@@H]3O[C@H]1C[C@H](N)[C@H](O)[C@H](C)O1 [Doxorubicin hydrochloride] has a z.score.t of −1.209. CCO.C[C@H]1c2cccc(O)c2C(O)=C2C(=O)[C@]3(O)C(O)=C(C(N)=O)C(=O)[C@@H](N(C)C)[C@@H]3[C@@H](O)[C@@H]21.C[C@H]1c2cccc(O)c2C(O)=C2C(=O)[C@]3(O)C(O)=C(C(N)=O)C(=O)[C@@H](N(C)C)[C@@H]3[C@@H](O)[C@@H]21.Cl.Cl.O [Doxycycline hyclate] was tested, and the z.score.t was 1.148. CN(C)CCOC(C)(c1ccccc1)c1ccccn1 (centres unmarked) [Doxylamine succinate] showed a z.score.t of −0.1538. With CCN(CC)CCOC(=O)C(c1ccccc1)C1CCCCC1 (centres unmarked) [Drofenine hydrochloride] the z.score.t was −0.1913. O=C(CCCN1CC=C(n2c(=O)[nH]c3ccccc32)CC1)c1ccc(F)cc1 [Droperidol] was tested, and the z.score.t was 1.197. Compound CCCCOc1ccc(C(=O)CCN2CCCCC2)cc1 [Dyclonine hydrochloride] has a z.score.t of −0.6492. For CC(=O)[C@H]1CC[C@H]2[C@@H]3C=CC4=CC(=O)CC[C@@]4(C)[C@@H]3CC[C@]12C [Dydrogesterone], the z.score.t was 0.81. In the case of O=c1c2ccccc2[se]n1-c1ccccc1 [Ebselen], the z.score.t is reported as 0.3459. Clc1ccc(COC(Cn2ccnc2)c2ccc(Cl)cc2Cl)cc1 (centres unmarked) [Econazole nitrate] was tested, and the z.score.t was −1.834. Cc1c2ccncc2c(C)c2c1[nH]c1ccccc12 [Ellipticine] was tested, and the z.score.t was −1.949. For CC[C@H]1CN2CCc3cc(OC)c(OC)cc3[C@@H]2C[C@@H]1C[C@H]1NCCc2cc(OC)c(OC)cc21 [Emetine dihydrochloride], the z.score.t was −1.991. Work on CCOC(=O)[C@H](CCc1ccccc1)N[C@@H](C)C(=O)N1CCC[C@H]1C(=O)O [Enalapril maleate] yielded a z.score.t of −0.8991. With C=CCOC(Cn1ccnc1)c1ccc(Cl)cc1Cl (centres unmarked) [Enilconazole] the z.score.t was −1.535. Oc1cc(O)c2c(c1)O[C@H](c1ccc(O)c(O)c1)[C@H](O)C2 [Epicatechin-(−)] was tested, and the z.score.t was −0.411. COc1cc(C)nc(-n2nc(C)cc2OC)n1 [Epirizole] was tested, and the z.score.t was 1.191. C[C@]12CC[C@H]3C(=CCc4cc(O)ccc43)[C@@H]1CCC2=O [Equilin] showed a z.score.t of 0.9352. Work on CC[C@H]1OC(=O)[C@H](C)[C@@H](O[C@H]2C[C@@](C)(OC)[C@@H](O)[C@H](C)O2)[C@H](C)[C@@H](O[C@@H]2O[C@H](C)C[C@H](N(C)C)[C@H]2O)[C@](C)(O)C[C@@H](C)C(=O)[C@H](C)[C@@H](O)[C@]1(C)O [Erythromycin] yielded a z.score.t of −0.09426. O=c1ccc2cc(O)c(O)cc2o1 [Esculetin] gave a z.score.t of −0.7376. C[C@]12CC[C@@H]3c4ccc(O)cc4CC[C@H]3[C@@H]1CC[C@@H]2O [Estradiol-17 beta] showed a z.score.t of −0.7953. Work on C[C@]12CC[C@@H]3c4ccc(O)cc4CC[C@H]3[C@@H]1C[C@@H](O)[C@@H]2O [Estriol] yielded a z.score.t of 0.7296. C[C@]12CC[C@@H]3c4ccc(O)cc4CC[C@H]3[C@@H]1CCC2=O [Estrone] showed a z.score.t of 1.784. Compound C[C@]12CC[C@@H]3c4ccc(OS(=O)(=O)O)cc4CC[C@H]3[C@@H]1CCC2=O [Estropipate] has a z.score.t of 1.178. For O=C(Cn1ccnc1[N+](=O)[O-])NCCO [Etanidazole], the z.score.t was 0.1469. Work on C=C(CC)C(=O)c1ccc(OCC(=O)O)c(Cl)c1Cl [Ethacrynic acid] yielded a z.score.t of 1.53. CC[C@@H](CO)NCCN[C@@H](CC)CO [Ethambutol dihydrochloride] was tested, and the z.score.t was 1.13. Compound CCN(CC)C(=O)c1ccc(O)c(OC)c1 [Ethamivan] has a z.score.t of 1.211. Compound O=S(=O)(O)c1cc(O)ccc1O [Ethamsylate] has a z.score.t of −0.4549. Compound CCOc1ccc(Cc2nccc3cc(OCC)c(OCC)cc23)cc1OCC [Ethaverine hydrochloride] has a z.score.t of 0.453. CCc1cc(C(N)=S)ccn1 [Ethionamide] showed a z.score.t of 0.3024. CCN(CC)C(C)CN1c2ccccc2Sc2ccccc21 (centres unmarked) [Ethopropazine hydrochloride] showed a z.score.t of 0.2139. Compound CCC1(C)CC(=O)NC1=O (centres unmarked) [Ethosuximide] has a z.score.t of 0.4064. CCN1C(=O)NC(c2ccccc2)C1=O (centres unmarked) [Ethotoin] showed a z.score.t of −0.6988. Work on CCOc1ccc2c(c1)C(C)=CC(C)(C)N2 [Ethoxyquin] yielded a z.score.t of −1.23. C#C[C@]1(OC(C)=O)CC[C@H]2[C@@H]3CCC4=C[C@@H](OC(C)=O)CC[C@@H]4[C@H]3CC[C@@]21C [Ethynodiol diacetate] was tested, and the z.score.t was −0.3895. C#C[C@]1(O)CC[C@H]2[C@@H]3CCc4cc(OC)ccc4[C@H]3CC[C@@]21C [Ethynylestradiol 3-methyl ether] was tested, and the z.score.t was 0.9696. CC(O)(P(=O)(O)O)P(=O)(O)O [Etidronic acid, disodium salt] gave a z.score.t of −0.8317.
